Experimental data published in US7074922B2, “Method for producing the tautomeric form of (1) of 2,4,6-trianilino-p-(carbo-1′-ethylhexyl-1′oxyl)-1, 3, 5-triazine” (BASF Aktiengesellschaft, priority 2002, dated 2006).

Assay: Storage stability of solutions in cosmetic oils (clouding and precipitation)
Assay type: physicochemical
Conditions: after 2 days
Source text: Storage Stability of Solutions of the Tautomeric Form I in Cosmetic Oils
Both solutions were still clear after 2 days.

- appearance of solution on storage (solution in C8–C10-coconut fatty acid triglyceride): still clear
- appearance of solution on storage (solution in cetylstearyl 2-ethylhexanoate): still clear
Structure (SMILES): CCCCC(CC)COC(=O)c1ccc(Nc2nc(Nc3ccc(C(=O)OCC(CC)CCCC)cc3)nc(Nc3ccc(C(=O)OCC(CC)CCCC)cc3)n2)cc1 (centres unmarked) [I, 2,4,6-trianilino-p-(carbo-2′-ethylhexyl-1′-oxy)-1,3,5-triazine]
